A short description of series [1]: Cell viability by MTT assay. The settings on record: mouse, peritoneal macrophages; 10 µM; MTT; compared to vehicle (DMSO). The class given is cell-based, mouse. As for the experimental part:
(§1) The peritoneal macrophage were obtained and plated as described above. The cells were incubated with the vehicle or compounds for 20 hours when was added 200 µL of RPMI medium containing 0.5 mg/mL MTT […] (3-(4,5-dimethylthiazol-2-yl)-2,5-diphenyltetrazolium bromide) followed by 4 hour of incubation at 37°C in a 5% CO2 atmosphere. After incubation supernatants were discarded and 200 µL DMSO (dimethylsulfoxide) were added to solubilize the MTT-formazan crystals. The optical density was measured in a microplate reader at 490 nm. The control groups consisted of cells with medium plus vehicle used to dissolve the substances and was considered as 100% of viable cells. Results are expressed as percentage of viable cells when compared with control groups.
(Tetrazolium assays rely on reduction of a dye to a coloured formazan, in cell work by metabolically active cells.)

Series [2] deals with murine peritoneal macrophages. Description: Cell viability by MTT assay. The class given is cell-based, mouse. Particulars: for IC50: Mus musculus, Peritoneal macrophage, MTT cytotoxicity, concentration range 0.1–100 µM; for Selectivity Index (SI): SI = cytotoxicity IC50/anti-TNF-α IC50. How it is done: as §1
A further series deals with p38α MAPK (Homo sapiens, UniProt Q16539). Description: p38α MAPK activity, nonradioactive immunosorbent assay. Format: biochemical. How it is done:
Because the novel N-acylhydrazone derivatives 1 were designed based on the p38α MAPK inhibitor BIRB-796 (3), some of them were evaluated for their in vitro capacity to inhibit p38α MAPK activity at a concentration of 10 µM.
*This assay was performed as described by Goettert MR, Graeser, Laufer SA (2010) Optimization of a nonradioactive immunosorbent assay for p38 alpha mitogen-activated protein kinase activity. Anal Biochem 406: 233–234.

In series [3] the test system is TNF-α production. Description: LPS-induced TNF-α production in culture of mice peritoneal macrophage (ELISA). Particulars: Mus musculus; for inhibition at 10 µM: 24 h, read-out: TNF-α % inhibition at 10 µM; for IC50: read-out: TNF-α IC50. On the technique in general: An ELISA detects its analyte on a solid surface through an enzyme-linked reagent.
Method: BALBc mice received thyoglicollate 3% (1 mL/mice; i.p.) and 3 days later the peritoneal cavities were washed with RPMI 1640 culture medium (Sigma, USA, supplemented with 10% fetal bovine serum). The peritoneal macrophages were plated onto 96-wells plate (30.000 cells/well) for 1 hour at 37°C in a humidified 5% CO2 atmosphere. Then, macrophages were incubated with the vehicle or compounds and 1 hour later stimulated with LPS(100 ng/mL) for 24 hours when the supernatants were collected to evaluate TNF-α production by ELISA kit (B&D Bioscience, USA).
The test system of series [4] is TNF-α production. Briefly: Subcutaneous air pouch (SAP) model, TNF-α in exudate. The class given is in vivo, mice. Particulars: 1i oral pre-treatment, carrageenan 1% SAP. The source says: Because compound 1i provided a better balance between the IC50 value for TNF-α production and cellular toxicity in vitro, we evaluated its effects in the subcutaneous air pouch (SAP) model, an in vivo model of inflammation and TNF production, [28].
Figure 4 Effect of compound 1i on TNF-α production. Twenty-four hours prior to carrageenan (1%) injection into the subcutaneous air pouch (SAP), animals were pretreated by oral administration with different doses of a solution of 1i. The results are presented as the mean ± S. D. (n = 6–10) of TNF-α (pg/mL). Statistical significance was calculated by ANOVA followed by Bonferroni’s test. * indicates p<0.005 for the comparison of 1i -treated mice with the vehicle-treated group; # indicates p<0.005 for the comparison of vehicle-treated mice with the PBS-treated group.
(§2) The experimental protocol was similar to that described by Romano and colleagues (1997) with several modifications described by Raymundo and colleagues (2011). The animals received a dorsal subcutaneous injection of sterile air (10 mL) on three alternate days to induce the SAP. On the sixth day, animals received a subcutaneous injection of sterile carrageenan suspension (1%; 1 mL). Mice were pre-treated with vehicle (Polysorbate 80), 1i (3, 10, 30 and 100 µmol/kg) or dexamethasone (1.5 µmol/kg, i.p.) 1 h before carrageenan injection into the SAP. The control group received an injection of sterile PBS (1 mL) into the SAP. Animals were sacrificed 24 h after carrageenan injection. The cavity was washed with 1 mL of sterile PBS. Exudates were collected, centrifuged at 11,000 rpm for 10 min at 4°C and TNF-α accumulated was quantified. The cytokines quantification was done by enzyme-linked immunosorbent assay (ELISA) according to the manufacturer’s instructions (B&D, USA). The results are expressed as pg/mL of each cytokine. Animals were sacrificed after an exposition to a saturated carbon dioxide atmosphere in an appropriate gas chamber.

A further series has as its system IL-1β production. Briefly: Subcutaneous air pouch (SAP) model, IL-1β in exudate. Format: in vivo, mice. The settings on record: oral. As for the experimental part:
(§3) We also measured the levels of the cytokines interferon-γ (IFN- γ) and interleukin 1β (IL-1β).
(§4) Figure 5 Effect of compound 1i on IL-1β and IFN-γ production. Twenty-four hours prior to carrageenan (1%) injection into the subcutaneous air pouch (SAP), animals were pretreated by oral administration with different doses of a solution of 1i. The results are presented as the mean ± S. D. (n = 6–10) of each cytokine (ng/mL). Statistical significance was calculated by ANOVA followed by Bonferroni’s test. * indicates p<0.005 for the comparison of 1i -treated mice with the vehicle-treated group; # indicates p<0.005 for the comparison of vehicle-treated mice with the PBS-treated group.
as §2

The next series concerns IFN-γ production. Description: Subcutaneous air pouch (SAP) model, IFN-γ in exudate. Format: in vivo, mice. The settings on record: oral. How it is done: as §3, §4, §2

13 compounds from PMC3954757, “Novel Potent Imidazo[1,2-a]pyridine-N-Glycinyl-Hydrazone Inhibitors of TNF-α Production: In Vitro and In Vivo Studies” (PLoS ONE, 2014) can be followed below.

Where “and” joins values, the source holds several entries; their conditions need not be identical. Equal entries are not always repeated.

The term viability denotes a read-out of living cells in per cent, often relative to untreated cells. Low readings indicate more harm to the cells, high ones less harm to the cells. In general, IC50 refers to the point on the concentration scale where inhibition reaches its midpoint. In general, melting point refers to the temperature of the solid-liquid transition. Broadly, the inhibition is the drop in the measured response relative to a control, in per cent.

Sequence of p38α MAPK (Q16539 whole entry): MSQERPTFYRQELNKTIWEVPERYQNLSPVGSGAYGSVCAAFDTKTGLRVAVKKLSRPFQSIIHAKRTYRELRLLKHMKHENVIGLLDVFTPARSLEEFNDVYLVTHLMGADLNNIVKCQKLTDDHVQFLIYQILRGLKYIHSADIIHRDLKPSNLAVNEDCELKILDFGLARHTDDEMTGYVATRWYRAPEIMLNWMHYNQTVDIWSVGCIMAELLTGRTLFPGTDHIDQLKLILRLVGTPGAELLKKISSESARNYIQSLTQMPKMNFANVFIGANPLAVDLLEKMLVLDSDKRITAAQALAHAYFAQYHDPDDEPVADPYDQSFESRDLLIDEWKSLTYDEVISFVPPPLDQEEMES

The compound `CC(C)(C)c1nc2ccccn2c1NCC(=O)N/N=C/c1ccc(OCCN2CCOCC2)c2ccccc12` [Compound 1a, (E)-2-(2-tert-butylimidazo[1,2-a]pyridin-3-ylamino)-N’-((4-(2-morpholinoethoxy)naphthalen-1-yl)methylene)acetohydrazide] had a melting point of 135 to 137 °C. Also, the viability at 20 h, 10 µM in series [1] amounted to 20.1%. Besides, in series [2], the midpoint of inhibition, the IC50, lay at 6.9 µM and the “Selectivity Index (SI)” value was determined as 11.1. At p38α MAPK, the inhibition at 10 µM was determined as 11.8%. Also, in the series on TNF-α production [3], the inhibition at 10 µM is 95.3% and the IC50 was found to be 620 nM.

`O=C(CNc1c(-c2ccccc2)nc2ccccn12)N/N=C/c1ccc(OCCN2CCOCC2)c2ccccc12` [Compound 1b, (E)-N’-((4-(2-morpholinoethoxy)naphthalen-1-yl)methylene)-2-(2-phenylimidazo [1,2-a]pyridin-3-ylamino)acetohydrazide] came in with a melting point of 105 to 108 °C. Besides, in series [1], the viability at 20 h, 10 µM was 78.4%. In series [2], it took 14.7 µM to reach half-maximal inhibition (IC50) and the “Selectivity Index (SI)” value was determined as 43.2. For the same compound, the inhibition at 10 µM at p38α MAPK was 6.5%. For the same compound, in the series on TNF-α production [3], the inhibition at 10 µM is 77.3% and the IC50 was determined as 340 nM.

For `O=C(CNc1c(-c2ccccc2)nc2ccccn12)N/N=C/c1ccc(OCCN2CCOCC2)cc1` [Compound 1c, (E)-N’-(4-(2-morpholinoethoxy)benzylidene)-2-(2-phenylimidazo[1,2-a]pyridin-3-ylamino)acetohydrazide], the melting point is 169 to 171 °C and 167 to 169 °C. This compound also displayed a viability at 20 h, 10 µM in series [1] of 100%. Moreover, the inhibition at 10 µM at p38α MAPK amounted to 22.6%. Besides, the inhibition at 10 µM in the series with TNF-α production [3] was found to be 18.3%.

Compound `O=C(CNc1c(-c2ccccc2)nc2ccccn12)N/N=C/c1ccc(O)cc1` [Compound 1d, (E)-N’-(4-hydroxybenzylidene)-2-(2-phenylimidazo[1,2-a]pyridin-3-ylamino) acetohydrazide] gave a melting point of 273 to 275 °C. This compound came in with a viability at 20 h, 10 µM in series [1] of 100%. In addition, in the series on TNF-α production [3], the inhibition at 10 µM came to 56.7% and the IC50 worked out at 3670 nM.

In the case of `O=C(CNc1c(-c2ccccc2)nc2ccccn12)N/N=C/c1ccc(Cl)cc1` [Compound 1e, (E)-N’-(4-chlorobenzylidene)-2-(2-phenylimidazo[1,2-a]pyridin-3-ylamino) acetohydrazide], the melting point was 122 to 124 °C and 120 to 122 °C. The same compound returned a viability at 20 h, 10 µM in series [1] of 100%. In addition, in the series with TNF-α production [3], the inhibition at 10 µM worked out at 53.8% and the IC50 was 3050 nM.

Take `O=C(CNc1c(-c2ccccc2)nc2ccccn12)N/N=C/c1ccccc1` [Compound 1f, (E)-N’-benzylidene-2-(2-phenylimidazo[1,2-a]pyridin-3-ylamino)acetohydrazide]: the melting point was 138 to 141 °C. The viability at 20 h, 10 µM in series [1] is 100%. For the same compound, the inhibition at 10 µM in the series with TNF-α production [3] was 29.3%.

As for `CC(C)(C)c1nc2ccccn2c1NCC(=O)N/N=C/c1ccccc1` [Compound 1g, (E)-N’-benzylidene-2-(2-tert-butylimidazo[1,2-a]pyridin-3-ylamino)acetohydrazide], the melting point fell in the range of 230 to 232 °C. Besides, the viability at 20 h, 10 µM in series [1] was found to be 100%. The inhibition at 10 µM in the series with TNF-α production [3] amounted to 5.6%.

Take `CC(C)(C)c1nc2ccccn2c1NCC(=O)N/N=C/c1ccc(OCCN2CCOCC2)cc1` [Compound 1h, (E)-2-(2-tert-butylimidazo[1,2-a]pyridin-3-ylamino)-N’-(4-(2-morpholinoethoxy)benzylidene)acetohydrazide]: the viability at 20 h, 10 µM in series [1] was 100%. Moreover, the inhibition at 10 µM in the series with TNF-α production [3] worked out at 2.8%.

`CC(C)(C)c1nc2ccccn2c1NCC(=O)N/N=C/c1ccc(Cl)cc1` [Compound 1i, (E)-2-(2-tert-butylimidazo[1,2-a]pyridin-3-ylamino)-N’-(4-chlorobenzylidene) acetohydrazide] showed a melting point of 232 to 234 °C. Moreover, the “reduction of TNF-α production” value in the series on TNF-α production [4] (3 µmol/kg) was 96.8%. Besides, the “reduction of TNF-α production” value in the series on TNF-α production [4] (10 µmol/kg) came to 90.6%. For the same compound, the “reduction of TNF-α production” value in the series with TNF-α production [4] (30 µmol/kg) is 97.3%. The “reduction of TNF-α production” value with TNF-α production [4] (100 µmol/kg) is recorded as 95.31%. The viability at 20 h, 10 µM in series [1] stood at 73.3%. Also, in series [2], the IC50 was found to be 21.7 µM and the “Selectivity Index (SI)” value is on record as 103.3. Moreover, the “reduction in IL-1β” value in the series on IL-1β production (3 µmol/kg) worked out at 81%. Further, the “reduction in IL-1β” value in the series on IL-1β production (10 µmol/kg) was 69.5%. The “reduction in IL-1β” value in the series on IL-1β production (30 µmol/kg) is given as 74.7%. Moreover, the “reduction in IL-1β” value in the series on IL-1β production (100 µmol/kg) is recorded as 65.7%. Also, in the series on IFN-γ production (3 µmol/kg), the “inhibition of IFN-γ” value came to 83.7%. Also, the “inhibition of IFN-γ” value with IFN-γ production (10 µmol/kg) is reported as 83%. Besides, the “inhibition of IFN-γ” value in the series on IFN-γ production (30 µmol/kg) is 82.8%. Besides, the “inhibition of IFN-γ” value in the series with IFN-γ production (100 µmol/kg) is 82.4%. In the series on TNF-α production [3], the inhibition at 10 µM amounted to 78% and the IC50 turned out to be 210 nM.

`O=C(CNc1c(-c2ccccc2)nc2ccccn12)N/N=C/c1ccc(O)c2ccccc12` [Compound 1j, (E)-N’-((4-hydroxynaphthalen-1-yl)methylene)-2-(2-phenylimidazo[1,2-a]pyridin-3-ylamino)acetohydrazide] yielded a melting point greater than 300 °C. Moreover, in series [1], the viability at 20 h, 10 µM came to 40%. For the same compound, in series [2], the IC50 came out at 10.4 µM and the “Selectivity Index (SI)” value was determined as 33.5. In the series on TNF-α production [3], the inhibition at 10 µM turned out to be 90.8% and the IC50 came to 310 nM.

Compound `O=C(CNc1c(-c2ccccc2)nc2ccccn12)N/N=C/c1cccc2ccccc12` [Compound 1k, (E)-N’-(naphthalen-1-ylmethylene)-2-(2-phenylimidazo[1,2-a]pyridin-3-ylami-no)acetohydrazide] gave a melting point of 208 to 210 °C. For the same compound, the viability at 20 h, 10 µM in series [1] amounted to 83.2%. Also, in series [2], the IC50 amounted to 23.5 µM and the “Selectivity Index (SI)” value worked out at 23.7. Besides, the inhibition at 10 µM on p38α MAPK stood at 17.2%. Moreover, in the series with TNF-α production [3], the inhibition at 10 µM is 75.8% and the IC50 came to 990 nM.

In turn, `CC(C)(C)c1cc(NCC(=O)N/N=C/c2ccc(OCCN3CCOCC3)c3ccccc23)n(-c2ccccc2)n1` [LASSBio-1504 (2), reference compound] returned a viability at 20 h, 10 µM in series [1] of 61.5%. In series [2], inhibition was half-maximal at 10.3 µM (IC50) and the “Selectivity Index (SI)” value was 2.8. In addition, in the series with TNF-α production [3], the inhibition at 10 µM is 96.9% and the IC50 worked out at 3600 nM.

Regarding `C[S+]([O-])c1ccc(-c2nc(-c3ccncc3)c(-c3ccc(F)cc3)[nH]2)cc1` (stereo not drawn) [SB-203580, reference compound], the viability at 20 h, 10 µM in series [1] was found to be 44.3%. Further, the inhibition at 10 µM in the series on TNF-α production [3] amounted to 90%.
